Measured values as given in ChEMBL document CHEMBL1155271, “Synthesis, crystal structures and antibacterial activity studies of aza-derivatives of phytoalexin from cotton plant--gossypol” (2009).
≈ marks a conversion by molar mass, not a printed value. Calls of active or inactive are those of the source. The calls are words filed in the database; no cut-off is given here.

Key:
Type in all cases: functional
Micrococcus luteus [1] = test: Antimicrobial activity against Micrococcus luteus ATCC 10240 by twofold dilution technique
Staphylococcus aureus [2] = test: Antimicrobial activity against Methicillin susceptible Staphylococcus aureus 238/7 by twofold dilution technique
Enterococcus hirae [3] = test: Antimicrobial activity against Enterococcus hirae ATCC 10541 at 400 ug after 18 hrs by disk diffusion method
Bacillus subtilis [4] = test: Antimicrobial activity against Bacillus subtilis ATCC 6633 after 18 hrs by twofold dilution technique; details: ATCC 6633, 18 h
Staphylococcus aureus [5] = test: Antimicrobial activity against Staphylococcus aureus ATCC 29213 after 18 hrs by twofold dilution technique; details: ATCC 29213, 18 h
Bacillus cereus [6] = test: Antimicrobial activity against Bacillus cereus ATCC 11778 after 18 hrs by twofold dilution technique; details: ATCC 11778, 18 h
Staphylococcus aureus [7] = test: Antimicrobial activity against Methicillin susceptible Staphylococcus aureus 207/7 by twofold dilution technique
Staphylococcus aureus [8] = test: Antimicrobial activity against Methicillin susceptible Staphylococcus aureus 242/7 by twofold dilution technique
Staphylococcus aureus [9] = test: Antimicrobial activity against Staphylococcus aureus NCTC 4163 at 400 ug after 18 hrs by disk diffusion method; details: NCTC 4163, 18 h, read-out: DIZ
Staphylococcus aureus [10] = test: Antimicrobial activity against methicillin-resistant Staphylococcus aureus 144/6 by twofold dilution technique
Staphylococcus aureus [11] = test: Antimicrobial activity against methicillin-resistant Staphylococcus aureus 146/6 by twofold dilution technique
Staphylococcus aureus [12] = test: Antimicrobial activity against Methicillin susceptible Staphylococcus aureus 213/7 by twofold dilution technique
Staphylococcus aureus [13] = test: Antimicrobial activity against Methicillin susceptible Staphylococcus aureus 243/7 by twofold dilution technique
Staphylococcus aureus [14] = test: Antimicrobial activity against methicillin-resistant Staphylococcus aureus 218/7 by twofold dilution technique
[15] = tested on: Staphylococcus epidermidis; test: Antimicrobial activity against Staphylococcus epidermidis ATCC 12228 by twofold dilution technique
Bacillus subtilis [16] = test: Antimicrobial activity against Bacillus subtilis ATCC 6633 at 400 ug after 18 hrs by disk diffusion method; details: ATCC 6633, 18 h, read-out: DIZ
Staphylococcus aureus [17] = test: Antimicrobial activity against methicillin-resistant Staphylococcus aureus 236/7 by twofold dilution technique
Staphylococcus aureus [18] = test: Antimicrobial activity against Staphylococcus aureus ATCC 6538 at 400 ug after 18 hrs by disk diffusion method; details: ATCC 6538, 18 h, read-out: DIZ
Staphylococcus aureus [19] = test: Antimicrobial activity against Staphylococcus aureus ATCC 6538 after 18 hrs by twofold dilution technique; details: ATCC 6538, 18 h
Staphylococcus aureus [20] = test: Antimicrobial activity against methicillin-resistant Staphylococcus aureus 140/6 by twofold dilution technique
Staphylococcus aureus [21] = test: Antimicrobial activity against Staphylococcus aureus ATCC 25923 at 400 ug after 18 hrs by disk diffusion method; details: ATCC 25923, 18 h, read-out: DIZ
Staphylococcus aureus [22] = test: Antimicrobial activity against methicillin-resistant Staphylococcus aureus 141/6 by twofold dilution technique
Staphylococcus aureus [23] = test: Antimicrobial activity against Staphylococcus aureus ATCC 29213 at 400 ug after 18 hrs by disk diffusion method; details: ATCC 29213, 18 h, read-out: DIZ
Staphylococcus aureus [24] = test: Antimicrobial activity against Methicillin susceptible Staphylococcus aureus 208/7 by twofold dilution technique
Staphylococcus aureus [25] = test: Antimicrobial activity against Methicillin susceptible Staphylococcus aureus 206/7 by twofold dilution technique
Enterococcus hirae [26] = test: Antimicrobial activity against Enterococcus hirae ATCC 10541 after 18 hrs by twofold dilution technique; details: ATCC 10541, 18 h
Micrococcus luteus [27] = test: Antimicrobial activity against Micrococcus luteus ATCC 9341 at 400 ug after 18 hrs by disk diffusion method
Staphylococcus aureus [28] = test: Antimicrobial activity against Methicillin susceptible Staphylococcus aureus 237/7 by twofold dilution technique
Staphylococcus aureus [29] = test: Antimicrobial activity against methicillin-resistant Staphylococcus aureus 200/7 by twofold dilution technique
Staphylococcus aureus [30] = test: Antimicrobial activity against methicillin-resistant Staphylococcus aureus 143/6 by twofold dilution technique
Staphylococcus aureus [31] = test: Antimicrobial activity against Methicillin susceptible Staphylococcus aureus 239/7 by twofold dilution technique
Micrococcus luteus [32] = test: Antimicrobial activity against Micrococcus luteus ATCC 9341 after 18 hrs by twofold dilution technique; details: ATCC 9341, 18 h
Staphylococcus aureus [33] = test: Antimicrobial activity against Staphylococcus aureus NCTC 4163 after 18 hrs by twofold dilution technique; details: NCTC 4163, 18 h
Staphylococcus aureus [34] = test: Antimicrobial activity against methicillin-resistant Staphylococcus aureus 136/6 by twofold dilution technique
Bacillus cereus [35] = test: Antimicrobial activity against Bacillus cereus ATCC 11778 at 400 ug after 18 hrs by disk diffusion method; details: ATCC 11778, 18 h, read-out: DIZ
Staphylococcus aureus [36] = test: Antimicrobial activity against Methicillin susceptible Staphylococcus aureus 212/7 by twofold dilution technique
[37] = tested on: Staphylococcus epidermidis; test: Antimicrobial activity against Staphylococcus epidermidis ATCC 12228 at 400 ug after 18 hrs by disk diffusion method; details: ATCC 12228, 18 h, read-out: DIZ
Staphylococcus aureus [38] = test: Antimicrobial activity against Staphylococcus aureus ATCC 25923 after 18 hrs by twofold dilution technique; details: ATCC 25923, 18 h
Micrococcus luteus [39] = test: Antimicrobial activity against Micrococcus luteus ATCC 10240 at 400 ug after 18 hrs by disk diffusion method; details: ATCC 10240, 18 h, read-out: DIZ
Staphylococcus aureus [40] = test: Antimicrobial activity against methicillin-resistant Staphylococcus aureus 217/7 by twofold dilution technique

| Structure (SMILES) | MIC (Micrococcus luteus [1]) [mg/L] | MIC (Staphylococcus aureus [2]) [mg/L] | diameter of the inhibition zone (DIZ) (Enterococcus hirae [3]) | MIC (Bacillus subtilis [4]) [mg/L] | MIC (Staphylococcus aureus [5]) [mg/L] | MIC (Bacillus cereus [6]) [mg/L] | MIC (Staphylococcus aureus [7]) [mg/L] | MIC (Staphylococcus aureus [8]) [mg/L] | zone of inhibition at 400 µg/disc (Staphylococcus aureus [9]) [mm] | MIC (Staphylococcus aureus [10]) [mg/L] | MIC (Staphylococcus aureus [11]) [mg/L] | MIC (Staphylococcus aureus [12]) [mg/L] | MIC (Staphylococcus aureus [13]) [mg/L] | MIC (Staphylococcus aureus [14]) [mg/L] | MIC [15] [mg/L] | zone of inhibition at 400 µg/disc (Bacillus subtilis [16]) [mm] | MIC (Staphylococcus aureus [17]) [mg/L] | zone of inhibition at 400 µg/disc (Staphylococcus aureus [18]) [mm] | MIC (Staphylococcus aureus [19]) [mg/L] | MIC (Staphylococcus aureus [20]) [mg/L] | also measured |
| --- | --- | --- | --- | --- | --- | --- | --- | --- | --- | --- | --- | --- | --- | --- | --- | --- | --- | --- | --- | --- | --- |
| COCCOC(CN/N=C/c1c(O)c(O)c(C(C)C)c2cc(C)c(-c3c(C)cc4c(C(C)C)c(O)c(O)c(/C=N/NCC(OCCOC)OCCOC)c4c3O)c(O)c12)OCCOC | 400 (≈ 445 µM) | 400 (≈ 445 µM) | inactive | > 400 | 400 (≈ 445 µM) | 400 (≈ 445 µM) | > 400 | 200 (≈ 222 µM) | 11 | 400 (≈ 445 µM) | 400 (≈ 445 µM) | 400 (≈ 445 µM) | > 400 | > 400 | > 400 | 12 | 400 (≈ 445 µM) | 11 | 400 (≈ 445 µM) | 400 (≈ 445 µM) | zone of inhibition at 400 µg/disc (Staphylococcus aureus [21]): 12 mm; MIC (Staphylococcus aureus [22]): 400 mg/L (≈ 445 µM); zone of inhibition at 400 µg/disc (Staphylococcus aureus [23]): 11 mm; MIC (Staphylococcus aureus [24]): > 400 mg/L; MIC (Staphylococcus aureus [25]): 400 mg/L (≈ 445 µM); MIC (Enterococcus hirae [26]): 400 mg/L (≈ 445 µM); diameter of the inhibition zone (DIZ) (Micrococcus luteus [27]): inactive; MIC (Staphylococcus aureus [28]): 400 mg/L (≈ 445 µM); MIC (Staphylococcus aureus [29]): > 400 mg/L; MIC (Staphylococcus aureus [30]): > 400 mg/L; MIC (Staphylococcus aureus [31]): 400 mg/L (≈ 445 µM); MIC (Micrococcus luteus [32]): 400 mg/L (≈ 445 µM); MIC (Staphylococcus aureus [33]): 400 mg/L (≈ 445 µM); MIC (Staphylococcus aureus [34]): 400 mg/L (≈ 445 µM); zone of inhibition at 400 µg/disc (Bacillus cereus [35]): 12 mm; MIC (Staphylococcus aureus [36]): > 400 mg/L; zone of inhibition at 400 µg/disc [37]: 13 mm; MIC (Staphylococcus aureus [38]): 400 mg/L (≈ 445 µM); zone of inhibition at 400 µg/disc (Micrococcus luteus [39]): 14 mm; MIC (Staphylococcus aureus [40]): > 400 mg/L |
| COCCOCCN/N=C/c1c(O)c(O)c(C(C)C)c2cc(C)c(-c3c(C)cc4c(C(C)C)c(O)c(O)c(/C=N/NCCOCCOC)c4c3O)c(O)c12 | 200 (≈ 266 µM) | 100 (≈ 133 µM) | inactive | 400 (≈ 533 µM) | 100 (≈ 133 µM) | 100 (≈ 133 µM) | 400 (≈ 533 µM) | 50 (≈ 66.6 µM) | 12 | 200 (≈ 266 µM) | 200 (≈ 266 µM) | 200 (≈ 266 µM) | 400 (≈ 533 µM) | 200 (≈ 266 µM) | > 400 | 11 | 100 (≈ 133 µM) | 12 | 100 (≈ 133 µM) | 200 (≈ 266 µM) | zone of inhibition at 400 µg/disc (Staphylococcus aureus [21]): 12 mm; MIC (Staphylococcus aureus [22]): 200 mg/L (≈ 266 µM); zone of inhibition at 400 µg/disc (Staphylococcus aureus [23]): 13 mm; MIC (Staphylococcus aureus [24]): 400 mg/L (≈ 533 µM); MIC (Staphylococcus aureus [25]): 100 mg/L (≈ 133 µM); MIC (Enterococcus hirae [26]): 200 mg/L (≈ 266 µM); diameter of the inhibition zone (DIZ) (Micrococcus luteus [27]): inactive; MIC (Staphylococcus aureus [28]): 200 mg/L (≈ 266 µM); MIC (Staphylococcus aureus [29]): 200 mg/L (≈ 266 µM); MIC (Staphylococcus aureus [30]): 400 mg/L (≈ 533 µM); MIC (Staphylococcus aureus [31]): 400 mg/L (≈ 533 µM); MIC (Micrococcus luteus [32]): 200 mg/L (≈ 266 µM); MIC (Staphylococcus aureus [33]): 200 mg/L (≈ 266 µM); MIC (Staphylococcus aureus [34]): 100 mg/L (≈ 133 µM); zone of inhibition at 400 µg/disc (Bacillus cereus [35]): 11 mm; MIC (Staphylococcus aureus [36]): 400 mg/L (≈ 533 µM); zone of inhibition at 400 µg/disc [37]: 12 mm; MIC (Staphylococcus aureus [38]): 200 mg/L (≈ 266 µM); zone of inhibition at 400 µg/disc (Micrococcus luteus [39]): 11 mm; MIC (Staphylococcus aureus [40]): 400 mg/L (≈ 533 µM) |
